The results in this text go back to article PMC6602202, “Enteroendocrine peptides regulate feeding behavior via controlling intestinal contraction of the silkworm Bombyx mori” (PLoS ONE, 2019).

The test concerns esophagus. Put plainly: Esophageal contraction in intact transparent larvae. The format is in vivo, Bombyx mori. As to the method:
Transparent larvae were prepared by feeding an artificial diet containing 0.05% melamine (Wako Pure Chemical Industries) starting from 0-day-old fifth-instar larvae. […] The visible effect took place in 2-day-old fifth-instar larvae compared to normally fed larvae. The feeding behavioral assay of transparent larva was performed in the same way as that of normal larvae. Each transparent larva was surrounded with a soft sponge and held with both sides by two slide glasses. Transmitted light enabled to illuminate the shape and movement of the shadowed esophagus portion. The contraction of foregut, particularly ‘forward contraction wave’ and ‘peristaltic squeeze’ at the esophagus were observed using a digital microscope to measure the number of contractions per minute. The ‘peristaltic squeezes’ at 8 h and 16 h in non-fed larvae were unmeasurable because of the limit of detection in our observation using digital microscope. 100 μL of distilled water (vehicle control) and 100 μL peptide-containing solution (10^−7–10^−4 M of peptides dissolved in distilled water) were injected dorsolaterally into the hemolymph. After injection, the numbers of contractions per minute of the esophagus were counted from the data of 3 min observation. Statistical analysis was performed using a one-way ANOVA, then a post hoc Dunnett’s test. Reproducibility was confirmed at least twice by assay using different populations of larvae.

The mark [1] stands for this setting: 10^−7–10^−4 M, 100 μL injected dorsolaterally, fed ad libitum transparent larvae, counted over 3 min, P < 0.05, n = 5.

In the case of allatotropin, the “forward contraction wave and peristaltic squeeze (movie)” value (10^−5 M solution injected dorsolaterally into the hemolymph) is “the forward contraction wave and peristaltic squeeze were inhibited”. Under setting [1], the “number of forward contraction waves” value was “decreased numbers of forward contraction waves and peristaltic squeezes in a dose-response manner”; the “number of peristaltic squeezes” value is “decreased numbers of forward contraction waves and peristaltic squeezes in a dose-response manner”.
